Key:
S. aureus [1] = assay: Number of viable Staphylococci over culture time (CFU count); type: cell-based, Staphylococcus aureus; conditions: agarobiose concentrations of 2 mg/mL or more
Experimental: (§1) In order to observe changes in staphylococcal growth according to culture time after the addition of agarobiose, the number of viable Staphylococci was monitored for 16 hours or 32 hours. To this end, the initial cell concentration was adjusted to an average of about 6.5×10^6 CFU/mL for both S. aureus and S. epidermidis, and the experiment was carried out at agarobiose concentrations of 0, 2, and 4 mg/mL.
(§2) The same culture conditions as in the method of Example 1 were applied, except that agarobiose concentrations of 0, 2, and 4 mg/mL were applied. At a working volume of 10 mL, the number of viable cells instead of absorbance was measured. To this end, the original sample was taken at each time point, diluted to 10^−3 to 10^−6 using 0.85% physiological saline, and then dispensed onto a trypticase soy agar (TSA; BD Bioscience, Franklin Lakes, N.J.) medium. After 16 to 24 hours, colony-forming unit (CFU)/mL was calculated and converted based on a dilution factor.

S. aureus (KCCM12256) = assay: Growth inhibition experiment in liquid medium (absorbance at 600 nm); type: cell-based, Staphylococcus aureus; conditions: for concentration at which growth was completely inhibited: liquid M9-based medium, 37° C., 200 rpm, OD600
Experimental: (§3) S. aureus (KCCM12256) and S. epidermidis (KCCM35494) distributed from the Korean Culture Center of Microorganisms were used. The medium for Staphylococci used a M9 salt supplemented with 2 mM MgSO4, 0.1 mM CaCl2), 1% (w/v) glucose, 1% (w/v) casamino acid, 1 mM thiamine HCl, and 0.05 mM nicotinamide. The thiamine-HCl solution and the nicotinamide solution were filtered using a filter having a pore size of 0.2 μm, and the other components were autoclaved at 121° C. for 15 minutes and used. After mixing the medium components according to their respective concentrations, the mixture was filtered again using a filter having a pore size of 0.2 μm.
(§4) In the growth inhibition experiment, the S. aureus and the S. epidermidis were seed-cultured at 37° C. and 200 rpm for 24 hours and then subcultured. After incubation up to the mid-exponential phase (OD600=2.5) through the subculture, the bacteria were inoculated into liquid media containing the agarooligosaccharide at concentrations of 0 mg/mL, 1 mg/mL, 2 mg/mL, and 4 mg/mL so that the initial absorbance (i.e., initial cell population) thereof at 600 nm was 0.01. Subsequently, each of the above was dispensed in 200 μl aliquots into a 96-well plate, and absorbance was measured while culturing the bacteria. The incubation and the absorbance measurement were performed using Synergy HTX Multi-Mode Reader commercially available from BioTek Instruments, Inc. The incubation was performed at 37° C. and 200 rpm, and the absorbance was measured at a wavelength of 600 nm. […]
The growth inhibition test of Staphylococci was carried out in the same manner as in Example 1, except that AHG (1, 2, 4, and 8 mg/mL) was used instead of the agarooligosaccharide. […]

S. epidermidis [2] = assay: Disk diffusion assay; type: cell-based, Staphylococcus epidermidis; conditions: 50 to 150 μg/disk, 37° C., 16 hours
Experimental: (§5) The disk diffusion assay is a common method of determining whether microbial growth is inhibited based on the diffusion of antibiotics in a disk. Accordingly, agarobiose was dispensed in an amount of 0 to 150 μg/disk on each disk to observe the growth of Staphylococci.
(§6) To this end, a solid medium for a disk diffusion assay having the same composition as in Example 1 was used, except that 1.5% agar was added to the liquid medium. […] First, the disks were prepared such that they contained agarobiose in an aqueous state in amounts of 0, 50, 100, and 150 μg/disk. Subsequently, a staphylococcal culture was streaked on the provided solid medium using a sterile cotton swab so that the Staphylococci were evenly distributed on the medium, and the prepared disks were placed on the solid medium inoculated with the bacteria. Subsequently, after culturing the bacteria at 37° C. for 16 hours, it was observed that a zone of inhibition appeared.

[3] = system: S. epidermidis (KCCM35494); assay: Growth inhibition experiment in liquid medium (absorbance at 600 nm); type: cell-based, Staphylococcus epidermidis
Experimental: as §3
as §4, with “bacteria.” for “bacteria. The incubation and the absorbance measurement were performed using Synergy HTX Multi-Mode Reader commercially available from BioTek Instruments, Inc. The incubation was performed at 37° C. and 200 rpm, and the absorbance was measured at a wavelength of 600 nm.”

S. aureus [4] = assay: LIVE/DEAD BacLight cell viability assay; type: cell-based, Staphylococcus aureus; conditions: agarobiose 2 mg/mL, 8 hours post-treatment
Experimental: The effect of the addition of agarobiose on the survival of S. aureus was tested using an Invitrogen LIVE/DEAD BacLight bacterial viability kit. […] To this end, after adjusting the number of S. aureus in a liquid medium containing agarobiose at 2 mg/mL so that the absorbance at 600 nm was 0.5, the S. aureus was cultured at 37° C. and 200 rpm. At 0 and 8 hours after incubation, the cells were washed with 0.85% physiological saline, resuspended in PBS buffer, and stained in accordance with the kit's protocol. Equal volumes of SYTO® 9 and propidium iodide reagents included in the kit were added and then reacted for 15 minutes in the dark.

S. aureus [5] = assay: Disk diffusion assay; type: cell-based, Staphylococcus aureus; conditions: 50 to 150 μg/disk, 37° C., 16 hours
Experimental: as §5, §6

S. epidermidis [6] = assay: Number of viable Staphylococci over culture time (CFU count); type: cell-based, Staphylococcus epidermidis
Experimental: as §1, §2

[7] = liquid medium, OD600, 1, 2, 4 and 8 mg/mL tested

OC[C@H]1O[C@@H](O[C@H]2[C@H]3OC[C@@H]2OC(O)[C@H]3O)[C@H](O)[C@@H](O)[C@H]1O (mixture of isomers) [agarobiose]
growth (viable cell count) (S. aureus [1]): inhibited
concentration at which growth was completely inhibited (S. aureus (KCCM12256)): 2 mg/mL
growth around disk (zone of inhibition) (S. epidermidis [2]): did not grow at all
concentration at which growth was completely inhibited ([3]; liquid M9-based medium, 37° C., 200 rpm, OD600): 2 mg/mL
cell viability (green/red fluorescence) (S. aureus [4]): caused the death of S. aureus
growth around disk (zone of inhibition) (S. aureus [5]): did not grow at all
decrease in number of viable cells from the initial number (S. epidermidis [6]; 2 mg/mL and 4 mg/mL, culturing for 16 to 32 hours, initial 6.5×10^6 CFU/mL): ≤ 1.5 log10 (CFU/mL)
growth (viable cell count) (S. epidermidis [6]; agarobiose concentrations of 2 mg/mL or more): inhibited

O=C[C@@H](O)[C@@H]1OC[C@H](O)[C@H]1O [AHG, 3,6-anhydro-L-galactose]
concentration at which growth was almost completely inhibited (S. aureus (KCCM12256); [7]): 8 mg/mL
concentration at which growth was almost completely inhibited [3, 7]: 8 mg/mL

O=C[C@H](O)[C@@H](O)[C@@H](O)[C@H](O)CO [galactose, reference compound]
growth inhibition (S. aureus (KCCM12256); [7]): not inhibited at all

OC[C@H]1OC(O)[C@H](O)[C@@H](O[C@@H]2O[C@H]3CO[C@@H]([C@@H]2O)[C@@H]3O)[C@H]1O (stereo partly drawn) [neoagarobiose, reference compound]
concentration at which growth was completely inhibited (S. aureus (KCCM12256)): > 20 mg/mL

From patent US11413305B2, “Use of agar-derived oligosaccharides for inhibiting growth of Staphylococcus” (Korea University Research and Business Foundation, priority 2017, dated 2022)
